# Data as given in patent US20250019386A1, “PYRROLO[1,2-b]-2-PYRIDAZINONE COMPOUNDS AS 5-HT4 RECEPTOR AGONISTS” (SUVEN LIFE SCIENCES LIMITED, priority 2022, published 2025).
# Assays:
# colonic transit = experiment: Effect on colonic transit in Swiss mice; assay type: in vivo, Male Swiss mice; settings: 1 and 3 mg/kg, p.o., carmine dye, 3 h after dye
# Experimental: Male Swiss mice of body weight ˜20-30 g were fasted for 16 h with free access to water prior to the experiment. Mice were administrated compound of example 2 or vehicle, 30 min after administration of 0.5 ml of carmine dye solution. Mice were sacrificed 3 h after dye administration and the distance traveled by the dye from proximal colon was measured. Colonic transit was expressed as % colonic transit=100×(length of colon in which carmine moved/total length of colon).
# [1] = Rat pharmacokinetic study; assay type: in vivo; settings: male Wistar rats, plasma
# Experimental: Male Wistar rats (250±50 g) were used as experimental animals. Animals were housed individually in polypropylene cages. Two days prior to study, rats were anesthetized with isoflurane for surgical placement of jugular vein catheter. Rats were randomly divided for oral (3 mg/kg and 10 mL/kg as dose volume) and intravenous (1 mg/kg and 2 mL/kg as dose volume) dosing (n=3/group) and fasted overnight before oral dosing (p.o.). However, rats allocated to intravenous dosing food and water was provided ad libitum.
# Intravenous formulation was prepared by using water for injection as vehicle. For Oral, formulation was prepared by using reagent grade water as vehicle. The dose formulations were prepared freshly on the day of dosing.
# After dosing of animal, each time point a 200 μL of blood sample was collected through jugular vein and replenished with an equivalent volume of normal saline. The collected blood sample was transferred into a labeled eppendorf tube containing 10 μL of sodium heparin (1000 IU/mL) as an anticoagulant. Typically blood samples were collected at following time points: 0.08, 0.25, 0.5, 1, 2, 4, 6, 8, and 24 h post dose. Blood was centrifuged at 4000 rpm for 10 min. Plasma was separated and stored frozen at −80° C. until analysis. The concentrations of the test compounds were quantified in plasma by qualified LC-MS/MS method using a suitable extraction technique. The test compounds were quantified in the calibration range around 1-2000 ng/mL in plasma. Study samples were analyzed using calibration samples in the batch and quality control samples spread across the batch.
# Pharmacokinetic parameters Cmax, AUCt, t1/2 and bioavailability were calculated by non-compartmental model using standard non-compartmental model by using Phoenix WinNonlin 6.4 version Software.
# 5-HT4 receptors = 5-HT4 receptors (Homo sapiens (Human), UniProt Q13639); experiment: Determination of EC50 values for 5-HT4 receptor (pCRE-Luc reporter assay); assay type: cell-based; settings: CHO cells expressing recombinant human 5-HT4 receptor and pCRE-Luc reporter; 4 h incubation; luciferase activity
# Experimental: A stable CHO cell line expressing recombinant human 5-HT4 receptor and pCRE-Luc reporter system was used for cell-based assay. The assay offers a non-radioactive based approach to determine binding of a compound to GPCRs. In this specific assay, the level of intracellular cyclic AMP, which is modulated by activation, or inhibition of the receptor is measured. The recombinant cells harbor luciferase reporter gene under the control of cAMP response element.
# The above cells were grown in 96 well clear bottom white plates in Ham's F12 medium containing 10% fetal bovine serum. Prior to the addition of compounds or standard agonist, cells were serum starved overnight. Increasing concentrations of test compounds were added to the cells in OptiMEM medium. The incubation was continued in CO2 incubator at 37° C. with 5% CO2 conditions for 4 h. Medium was removed and cells were washed with phosphate buffered saline. The cells were lysed and luciferase activity was measured in a Luminometer. Concentration-response data was generated using the luciferase assay, following incubation of cells with receptor ligands, were analyzed by subtracting basal levels (i.e. with medium alone), then normalizing values as a percentage of controls (endogenous agonist serotonin (10 μM)). […] EC50 values of the compounds were defined as the concentration required in stimulating the luciferase activity by 50%.
# Chain of 5-HT4 receptors (Q13639 whole entry): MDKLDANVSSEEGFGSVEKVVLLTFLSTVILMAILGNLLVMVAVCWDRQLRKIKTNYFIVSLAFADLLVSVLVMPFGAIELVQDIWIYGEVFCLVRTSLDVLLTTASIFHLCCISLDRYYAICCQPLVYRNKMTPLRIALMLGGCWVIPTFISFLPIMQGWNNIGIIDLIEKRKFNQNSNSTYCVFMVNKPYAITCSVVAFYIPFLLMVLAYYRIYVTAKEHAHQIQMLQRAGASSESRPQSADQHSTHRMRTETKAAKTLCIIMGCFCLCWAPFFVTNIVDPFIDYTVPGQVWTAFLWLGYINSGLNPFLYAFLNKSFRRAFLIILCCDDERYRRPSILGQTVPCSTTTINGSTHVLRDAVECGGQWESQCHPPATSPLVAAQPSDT
smiles,measurement,setting,value
"CC(C)n1c(=O)c(C(=O)NC2CC3CCC(C2)N3C[C@@H](O)CN(C)S(C)(=O)=O)cc2cccn21.O=C(O)C(O)C(O)C(=O)O (single isomer, unassigned) [Example 2]",colonic transit,colonic transit,increased the colonic transit
same,AUC(0-t),"[1]; intravenous (bolus), 1 mg/kg",0.065 ± 0.003 µg·h/mL
same,half-life,"[1]; intravenous (bolus), 1 mg/kg",1.5 ± 0.5 h
same,AUC(0-t),"[1]; oral (gavage), 3 mg/kg",0.16 ± 0.035 µg·h/mL
same,Cmax,"[1]; oral (gavage), 3 mg/kg",0.051 ± 0.019 µg/mL
same,bioavailability,[1]; oral 3 mg/kg vs intravenous 1 mg/kg,83 ± 18%
same,EC50,5-HT4 receptors,4.1 nM
